Among the data in patent US20240190849A1, “AMINOPYRIMIDINE COMPOUNDS AND METHODS OF THEIR USE” (TYRA BIOSCIENCES, INC., priority 2021, published 2024) are Kd values, retold here.

Holding throughout (details): FGFR binding data
In assay [1] the target is T1, FGFR1 (Homo sapiens, UniProt P11362).
T1 construct: made in house; host or cells: E. coli derived from BL21, infected with T7 phage
The experiment in a line: Kinase binding assay (kinase-tagged T7 phage, affinity beads, qPCR readout), FGFR1. The method, then: (§1) Kinase-tagged T7 phage strains were prepared in an E. coli host derived from the BL21 strain. E. coli were grown to log-phase and infected with T7 phage and incubated with shaking at 32° C. until lysis. The lysates were centrifuged and filtered to remove cell debris. Streptavidin-coated magnetic beads were treated with biotinylated small molecule ligands for 30 minutes at room temperature to generate affinity resins for kinase assays. The liganded beads were blocked with excess biotin and washed with blocking buffer SeaBlock (Pierce), 1% BSA, 0.05% Tween 20, 1 mM DTT to remove unbound ligand and to reduce non-specific binding. Binding reactions were assembled by combining kinases, liganded affinity beads, and test compounds in 1× binding buffer (20% SeaBlock, 0.17×PBS, 0.05% Tween 20, 6 mM DTT).
(§2) Test compounds were prepared as 111× stocks in 100% DMSO. Kds were determined using an 11-point 3-fold compound dilution series with three DMSO control points. All compounds for Kd measurements are distributed by acoustic transfer (non-contact dispensing) in 100% DMSO. The compounds were then diluted directly into the assays such that the final concentration of DMSO was 0.9%. All reactions performed in polypropylene 384-well plate. Each was a final volume of 0.02 ml. The assay plates were incubated at room temperature with shaking for 1 hour and the affinity beads were washed with wash buffer (1×PBS, 0.05% Tween 20). The beads were then re-suspended in elution buffer (1×PBS, 0.05% Tween 20, 0.5 μM non-biotinylated affinity ligand) and incubated at room temperature with shaking for 30 minutes. The kinase concentration in the eluates was measured by qPCR.
(§3) Binding constants were calculated with a standard dose-response curve using the Hill equation: […]
(§4) The Hill Slope was set to −1. Curves were fitted using a non-linear least square fit with the Levenberg-Marquardt algorithm.
In general terms: In qPCR the cycle at which signal appears reflects the starting amount.

For assay [2], the target named is T2, FGFR2 (Homo sapiens, UniProt P21802).
T2 construct: made in house; host or cells: E. coli derived from BL21, infected with T7 phage
T2 sequence (P21802 22-821): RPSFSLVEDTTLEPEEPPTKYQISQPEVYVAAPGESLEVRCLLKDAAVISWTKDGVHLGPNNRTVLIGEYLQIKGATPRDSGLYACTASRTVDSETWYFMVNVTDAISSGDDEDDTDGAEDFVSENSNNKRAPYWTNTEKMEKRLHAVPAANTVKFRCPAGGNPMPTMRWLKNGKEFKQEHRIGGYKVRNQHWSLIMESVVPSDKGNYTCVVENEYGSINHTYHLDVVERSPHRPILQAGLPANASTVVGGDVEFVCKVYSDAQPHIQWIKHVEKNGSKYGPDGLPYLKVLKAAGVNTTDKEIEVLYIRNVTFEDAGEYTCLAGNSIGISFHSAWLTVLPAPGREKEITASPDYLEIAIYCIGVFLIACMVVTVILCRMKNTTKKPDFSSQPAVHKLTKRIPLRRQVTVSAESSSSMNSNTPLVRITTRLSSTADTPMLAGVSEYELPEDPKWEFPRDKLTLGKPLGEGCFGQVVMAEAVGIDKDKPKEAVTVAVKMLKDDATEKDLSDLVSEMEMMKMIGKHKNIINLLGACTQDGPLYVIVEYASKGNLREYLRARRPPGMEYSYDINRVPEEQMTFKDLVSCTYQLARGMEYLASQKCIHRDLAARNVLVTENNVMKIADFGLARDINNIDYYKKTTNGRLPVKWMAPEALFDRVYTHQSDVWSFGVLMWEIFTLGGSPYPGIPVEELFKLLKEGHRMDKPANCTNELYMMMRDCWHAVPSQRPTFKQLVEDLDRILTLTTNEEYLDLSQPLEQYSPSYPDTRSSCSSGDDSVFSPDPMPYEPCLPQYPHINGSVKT
As to the kind of experiment: Kinase binding assay (kinase-tagged T7 phage, affinity beads, qPCR readout), FGFR2. The method, then:
as §1, §2, §3, §4

Assay [3] has as its target T3, FGFR3 (Homo sapiens, UniProt P22607).
T3 construct: made in house; host or cells: E. coli derived from BL21, infected with T7 phage
The experiment in a line: Kinase binding assay (kinase-tagged T7 phage, affinity beads, qPCR readout), FGFR3. The protocol: as §1, §2, §3, §4

Assay [4] has as its target T4, FGFR3 (V555M) (Homo sapiens, UniProt P22607, V555M).
T4 construct: made in house; host or cells: E. coli derived from BL21, infected with T7 phage
The experiment in a line: Kinase binding assay (kinase-tagged T7 phage, affinity beads, qPCR readout), FGFR3 (V555M). The protocol: as §1, §2, §3, §4

T1 sequence (P11362 22-822): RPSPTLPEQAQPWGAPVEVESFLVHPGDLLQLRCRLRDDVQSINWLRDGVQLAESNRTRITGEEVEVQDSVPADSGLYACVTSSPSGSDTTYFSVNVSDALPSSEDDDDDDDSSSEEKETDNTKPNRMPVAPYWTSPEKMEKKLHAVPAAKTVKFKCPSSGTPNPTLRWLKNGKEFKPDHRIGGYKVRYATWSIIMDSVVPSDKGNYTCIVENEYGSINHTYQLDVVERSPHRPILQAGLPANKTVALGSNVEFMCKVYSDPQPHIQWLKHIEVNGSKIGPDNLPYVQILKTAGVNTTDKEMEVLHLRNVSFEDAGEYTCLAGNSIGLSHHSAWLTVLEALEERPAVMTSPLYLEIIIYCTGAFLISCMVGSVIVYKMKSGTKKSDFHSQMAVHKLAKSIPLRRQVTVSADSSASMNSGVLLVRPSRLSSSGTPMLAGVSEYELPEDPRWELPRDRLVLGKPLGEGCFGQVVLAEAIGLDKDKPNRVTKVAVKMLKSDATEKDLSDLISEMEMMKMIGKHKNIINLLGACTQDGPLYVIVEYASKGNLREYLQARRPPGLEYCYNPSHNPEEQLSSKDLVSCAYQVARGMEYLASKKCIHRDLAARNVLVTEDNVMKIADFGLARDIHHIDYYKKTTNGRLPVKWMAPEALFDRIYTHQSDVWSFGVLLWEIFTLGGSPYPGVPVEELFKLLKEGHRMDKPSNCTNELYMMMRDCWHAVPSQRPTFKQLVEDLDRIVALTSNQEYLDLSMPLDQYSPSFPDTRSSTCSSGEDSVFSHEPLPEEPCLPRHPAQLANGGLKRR
T4 sequence (P22607 23-806 V555M): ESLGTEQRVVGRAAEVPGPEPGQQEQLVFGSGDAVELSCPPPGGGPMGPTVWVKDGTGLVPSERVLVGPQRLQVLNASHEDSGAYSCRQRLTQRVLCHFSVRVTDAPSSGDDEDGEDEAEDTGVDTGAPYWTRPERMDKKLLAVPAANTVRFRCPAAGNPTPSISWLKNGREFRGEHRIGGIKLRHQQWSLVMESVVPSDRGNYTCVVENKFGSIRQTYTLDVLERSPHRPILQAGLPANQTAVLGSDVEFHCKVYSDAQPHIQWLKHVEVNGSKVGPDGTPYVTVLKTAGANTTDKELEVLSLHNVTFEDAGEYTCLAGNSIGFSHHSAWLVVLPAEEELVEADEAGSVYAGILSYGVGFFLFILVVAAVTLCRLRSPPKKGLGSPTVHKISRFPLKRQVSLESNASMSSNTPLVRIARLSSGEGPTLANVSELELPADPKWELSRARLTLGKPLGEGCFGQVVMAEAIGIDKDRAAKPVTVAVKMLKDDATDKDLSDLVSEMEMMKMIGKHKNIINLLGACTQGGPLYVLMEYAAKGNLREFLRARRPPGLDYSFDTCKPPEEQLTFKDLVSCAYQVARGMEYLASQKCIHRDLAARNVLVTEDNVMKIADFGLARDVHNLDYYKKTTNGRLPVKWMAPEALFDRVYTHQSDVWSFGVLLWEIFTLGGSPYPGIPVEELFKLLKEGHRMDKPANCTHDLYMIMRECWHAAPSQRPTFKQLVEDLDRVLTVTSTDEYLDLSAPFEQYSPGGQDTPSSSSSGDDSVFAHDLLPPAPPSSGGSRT
T3 sequence (P22607 23-806): as the sequence (P22607 23-806 V555M) above, with M533V counted along it

One may read the Kd as the concentration at which binding is half-saturated. A higher Kd goes with a looser complex. With `C=CC(=O)Nc1ccc2c(ccn2-c2nc(Nc3ccc(N(C)CCN(C)C)cc3)ncc2Cl)c1` [Example 3, N-[1-[5-chloro-2-[4-[2-(dimethylamino)ethyl-methyl-amino]anilino]pyrimidin-4-yl]indol-5-yl]prop-2-enamide], the Kd in assay [1], in assay [2], in assay [3] and in assay [4] was 0.1 to 100 nM in each case.

Take `CCC(=O)Nc1ccc2c(ccn2-c2nc(Nc3ccc(N4CCN(C)CC4)cc3)ncc2Cl)c1` [Example 4, N-[1-[5-chloro-2-[4-(4-methylpiperazin-1-yl)anilino]pyrimidin-4-yl]indol-5-yl]propanamide]: the Kd in assay [1] lay in the range of 0.1 to 100 nM; in assay [2] it was 250 to 1000 nM; in assay [3] it was 100 to 250 nM; in assay [4] it was 0.1 to 100 nM.

With `C=CC(=O)Nc1ccc2c(ccn2-c2nc(Nc3cccc(OCCN4CCOCC4)c3)ncc2C)c1C` [Example 5, N-[4-methyl-1-[5-methyl-2-[3-(2-morpholinoethoxy)anilino]pyrimidin-4-yl]indol-5-yl]prop-2-enamide], the Kd lay in the range of 250 to 1000 nM in assay [1], 100 to 250 nM in assay [2], 100 to 250 nM in assay [3] and 0.1 to 100 nM in assay [4].

`C=CC(=O)Nc1ccc2c(ccn2-c2nc(Nc3cccc(OCCN4CCOCC4)c3)ncc2Cl)c1` [Example 6, N-[1-[5-chloro-2-[3-(2-morpholinoethoxy)anilino]pyrimidin-4-yl]indol-5-yl]prop-2-enamide]: the Kd in assay [1] was in the range of 250 to 1000 nM; in assay [2] it was 250 to 1000 nM; in assay [3], 250 to 1000 nM; in assay [4], 0.1 to 100 nM.

As for `C=CC(=O)Nc1ccc2c(ccn2-c2nc(Nc3ccc(N4CCOCC4)cc3OCC)ncc2Cl)c1` [Example 11, N-[1-[5-chloro-2-(2-ethoxy-4-morpholino-anilino)pyrimidin-4-yl]indol-5-yl]prop-2-enamide], the Kd in assay [1], in assay [2], in assay [3] and in assay [4] was above 1000 nM each time.

Consider `C=CC(=O)Nc1ccc2c(ccn2-c2nc(Nc3cn(C)nc3OC)ncc2Cl)c1` [Example 12, N-[1-[5-chloro-2-[(3-methoxy-1-methyl-pyrazol-4-yl)amino]-pyrimidin-4-yl]indol-5-yl]prop-2-enamide], for which the Kd in assay [1] was 250 to 1000 nM; in assay [2] it was above 1000 nM; in assay [3], 100 to 250 nM; in assay [4] it was 0.1 to 100 nM.

Take `C=CC(=O)Nc1ccc2c(ccn2-c2nc(Nc3ccccc3OCCN3CCOCC3)ncc2Cl)c1` [Example 13, N-[1-[5-chloro-2-[2-(2-morpholinoethoxy)anilino]pyrimidin-4-yl]indol-5-yl]prop-2-enamide]: the Kd in assay [1], in assay [2], in assay [3] and in assay [4] was above 1000 nM in each case.

As to `C=CC(=O)Nc1ccc2c(ccn2-c2nc(Nc3cn(C)nc3OCC)ncc2Cl)c1` [Example 14, N-[1-[5-chloro-2-[(3-ethoxy-1-methyl-pyrazol-4-yl)amino]pyrimidin-4-yl]indol-5-yl]prop-2-enamide], the Kd is 250 to 1000 nM in assay [1], above 1000 nM in assay [2], above 1000 nM in assay [3] and 100 to 250 nM in assay [4].

In the case of `C=CC(=O)Nc1ccc2c(ccn2-c2nc(Nc3ccc(N4CCOCC4)cc3)ncc2Cl)c1` [Example 15, N-[1-[5-chloro-2-(4-morpholinoanilino)pyrimidin-4-yl]indol-5-yl]prop-2-enamide], the Kd in assay [1] was 100 to 250 nM; in assay [2] it was 0.1 to 100 nM; in assay [3], 0.1 to 100 nM; in assay [4], 0.1 to 100 nM.

`C=CC(=O)Nc1ccc2c(ccn2-c2nc(Nc3ccc(N4CCOCC4)c(F)c3)ncc2Cl)c1` [Example 16, N-[1-[5-chloro-2-(3-fluoro-4-morpholino-anilino)pyrimidin-4-yl]indol-5-yl]prop-2-enamide]: the Kd was 250 to 1000 nM in assay [1], 250 to 1000 nM in assay [2], 0.1 to 100 nM in assay [3] and 0.1 to 100 nM in assay [4].

In the case of `C=CC(=O)Nc1ccc2c(ccn2-c2nc(Nc3ccc(N4CCOCC4)c(F)c3)ncc2Cl)c1C` [Example 17, N-[1-[5-chloro-2-(3-fluoro-4-morpholino-anilino)pyrimidin-4-yl]-4-methyl-indol-5-yl]prop-2-enamide], the Kd in assay [1] fell in the range of 250 to 1000 nM; in assay [2], 250 to 1000 nM; in assay [3] it was 100 to 250 nM; in assay [4] it was 0.1 to 100 nM.

For the compound `C=CC(=O)Nc1ccc2c(ccn2-c2nc(Nc3cnn(C)c3)ncc2Cl)c1C` [Example 18, N-[1-[5-chloro-2-[(1-methylpyrazol-4-yl)amino]pyrimidin-4-yl]-4-methyl-indol-5-yl]prop-2-enamide], the Kd in assay [1] was in the range of 100 to 250 nM; in assay [2] it was 100 to 250 nM; in assay [3], 100 to 250 nM; in assay [4], 0.1 to 100 nM.

As to `C=CC(=O)Nc1ccc2c(ccn2-c2nc(Nc3ccccc3OCC)ncc2Cl)c1` [Example 20, N-[1-[5-chloro-2-(2-ethoxyanilino)pyrimidin-4-yl]indol-5-yl]prop-2-enamide], the Kd in assay [1], in assay [2], in assay [3] and in assay [4] was above 1000 nM throughout.

As for `C=CC(=O)Nc1ccc2c(ccn2-c2nc(Nc3ccc(OCCN4CCOCC4)cc3)ncc2Cl)c1C` [Example 21, N-[1-[5-chloro-2-[4-(2-morpholinoethoxy)anilino]pyrimidin-4-yl]-4-methyl-indol-5-yl]prop-2-enamide], the Kd in assay [1] lay within 250 to 1000 nM; in assay [2] it was 0.1 to 100 nM; in assay [3], 100 to 250 nM; in assay [4], 0.1 to 100 nM.

Consider `C=CC(=O)Nc1ccc2c(c1)c(C)cn2-c1nc(Nc2c(C)cccc2OCC)ncc1Cl` [Example 29, N-[1-[5-chloro-2-(2-ethoxy-6-methyl-anilino)pyrimidin-4-yl]-3-methyl-indol-5-yl]prop-2-enamide], for which the Kd in assay [1], in assay [2], in assay [3] and in assay [4] was above 1000 nM each time.

Take `C=CC(=O)Nc1ccc2c(-c3nc(Nc4ccc(OC)c(OC)c4)ncc3Cl)cn(C)c2c1` [Example 31, N-[3-[5-chloro-2-(3,4-dimethoxyanilino)pyrimidin-4-yl]-1-methyl-indol-6-yl]prop-2-enamide]: the Kd in assay [1], in assay [2], in assay [3] and in assay [4] was 0.1 to 100 nM each time.

Regarding `C=CC(=O)Nc1ccc2c(c1)c(C)cn2-c1nc(Nc2c(C)cccc2OCC)ncc1C#N` [Example 33, N-[1-[5-cyano-2-(2-ethoxy-6-methyl-anilino)pyrimidin-4-yl]-3-methyl-indol-5-yl]prop-2-enamide], the Kd in assay [1], in assay [2], in assay [3] and in assay [4] was above 1000 nM throughout.

Regarding `C=CC(=O)Nc1ccc2c(c1)c(C)cn2-c1nc(Nc2cn(C)nc2OC)ncc1C#N` [Example 37, N-[1-[5-cyano-2-[(3-methoxy-1-methyl-pyrazol-4-yl)amino]pyrimidin-4-yl]-3-methyl-indol-5-yl]prop-2-enamide], the Kd in assay [1] was 100 to 250 nM; in assay [2] it was 0.1 to 100 nM; in assay [3] it was 100 to 250 nM; in assay [4], 0.1 to 100 nM.

`C=CC(=O)Nc1ccc2c(c1)c(C)cn2-c1nc(Nc2ccccc2OCC)ncc1C#N` [Example 39, N-[1-[5-cyano-2-(2-ethoxyanilino)pyrimidin-4-yl]-3-methyl-indol-5-yl]prop-2-enamide]: the Kd in assay [1], in assay [2], in assay [3] and in assay [4] was above 1000 nM each time.

On to `C=CC(=O)Nc1ccc2c(-c3nc(Nc4ccc(N5CCOCC5)nc4)ncc3Cl)cn(C)c2c1` [Example 45, N-[3-[5-chloro-2-[(6-morpholino-3-pyridyl)amino]pyrimidin-4-yl]-1-methyl-indol-6-yl]prop-2-enamide], for which the Kd in assay [1], in assay [2], in assay [3] and in assay [4] was 0.1 to 100 nM each time.

In the case of `C=CC(=O)Nc1ccc2c(c1)c(C)cn2-c1nc(Nc2ccc(N3CCOCC3)c(OC)c2)ncc1C` [Example 46, N-[1-[2-(3-methoxy-4-morpholino-anilino)-5-methyl-pyrimidin-4-yl]-3-methyl-indol-5-yl]prop-2-enamide], the Kd in assay [1], in assay [2], in assay [3] and in assay [4] was 0.1 to 100 nM throughout.

As for `C=CC(=O)Nc1ccc2c(c1)c(C)cn2-c1nc(Nc2ccc3ncnn3c2)ncc1Cl` [Example 47, N-[1-[5-chloro-2-([1,2,4]triazolo[1,5-a]pyridin-6-ylamino)pyrimidin-4-yl]-3-methyl-indol-5-yl]prop-2-enamide], the Kd lay within 100 to 250 nM in assay [1], 0.1 to 100 nM in assay [2], 0.1 to 100 nM in assay [3] and 0.1 to 100 nM in assay [4].
